Results: patent publication US8133884B2, “Compounds for the treatment of hepatitis C” (priority 2008, dated 2012)

Legend:
[1] = test system: HCV replicon; assay: HCV replicon assay (FRET or luciferase reporter); assay type: cell-based; conditions: Hepatitis C virus, one of the methods described
Source text: To perform the HCV FRET screening assay, 96-well cell culture plates were used, The FRET peptide (Anaspec, Inc.) (Taliani et al., Anal. Biochem., 240:60-67 (1996)) contains a fluorescence donor, EDANS, near one end of the peptide and an acceptor, DABCYL, near the other end. The fluorescence of the peptide is quenched by […] resonance energy transfer (RET) between the donor and the acceptor, but as the NS3 protease cleaves the peptide the products are released from RET quenching and the fluorescence of the donor becomes apparent. The assay reagent was made as follows: 5× cell Luciferase cell culture lysis reagent from Promega (#E153A) diluted to 1× with dH2O, NaCl added to 150 mM final, the FRET peptide diluted to 20 μM final from a 2 mM stock.
To prepare plates, HCV replicon cells, with or without a Renilla luciferase reporter gene, were trypsinized and placed into each well of a 96-well plate with titrated test compounds added in columns 3 through 12; columns 1 and 2 contained a control compound (HCV protease inhibitor), and the bottom row contained cells without compound. The plates were then placed in a CO2 incubator at 37° C.
Subsequent to addition of the test compounds described above (FRET Assay Preparation), at various times the plate was removed and Alamar blue solution (Trek Diagnostics, #00-100) was added per well as a measure of cellular toxicity. After reading in a CYTOFLUOR® 4000 instrument (PE Biosystems), plates were rinsed with PBS and then used for FRET assay by the addition of 30 ul of the FRET peptide assay reagent described above (FRET Assay Preparation) per well. The plate was then placed into the CYTOFLUOR® 4000 instrument which had been set to 340 excite/490 emission, automatic mode for 20 cycles and the plate read in a kinetic mode. Typically, the signal to noise using an endpoint analysis after the reads was at least three-fold. Alternatively, after Alamar blue reading, plates were rinsed with PBS, 50 ul of DMEM (high glucose) without phenol red was added and plates were then used for luciferase assay using the Promega DUAL-GLO® Luciferase Assay System.
Compound analysis was determined by quantification of the relative HCV replicon inhibition and the relative cytotoxicity values. To calculate cytoxicity values, the average Alamar Blue fluorescence signals from the control wells were set as 100% non-toxic. The individual signals in each of the compound test wells were then divided by the average control signal and multiplied by 100% to determine […]. To calculate the HCV replicon inhibition values, an average background value was obtained from the two wells containing the highest amount of HCV protease inhibitor at the end of the assay period. These numbers were similar to those obtained from naïve Huh-7 cells.
The background numbers were then subtracted from the average signal obtained from the control wells and this number was used as 100% activity. The individual signals in each of the compound test wells were then divided by the averaged control values after background subtraction and multiplied by 100% to determine percent activity. EC50 values for a protease inhibitor titration were calculated as the concentration which caused a 50% reduction in FRET or luciferase activity. The two numbers generated for the compound plate, percent cytoxicity and percent activity were used to determine compounds of interest for further analysis.
The HCV replicon luciferase assay was developed to monitor the inhibitory effects of compounds described in the disclosure on HCV viral replication. Utilization of a replicon luciferase reporter assay was first described by Krieger et al (Krieger, N. et al., J. Virology, 75(10):4614-4624 (2001)). HUH-7 cells, constitutively expressing the HCV replicon, were grown in Dulbecco's Modified Eagle Media (DMEM) (Gibco-BRL) containing 10% Fetal calf serum (FCS) (Sigma) and 1 mg/ml G418 (Gibco-BRL). […]

[2] = molecular target: T1, HCV NS5B (Hepatitis C virus genotype 1b, UniProt Q9WMX2); assay: Modified HCV NS5B RdRp enzyme assay (preincubation protocol); assay type: biochemical
T1 construct: The protein was expressed with an 18 amino acid C-terminal truncation to enhance the solubility; made in house; host or cells: E. coli BL21(DE3)
T1 sequence (Q9WMX2 2420-2992): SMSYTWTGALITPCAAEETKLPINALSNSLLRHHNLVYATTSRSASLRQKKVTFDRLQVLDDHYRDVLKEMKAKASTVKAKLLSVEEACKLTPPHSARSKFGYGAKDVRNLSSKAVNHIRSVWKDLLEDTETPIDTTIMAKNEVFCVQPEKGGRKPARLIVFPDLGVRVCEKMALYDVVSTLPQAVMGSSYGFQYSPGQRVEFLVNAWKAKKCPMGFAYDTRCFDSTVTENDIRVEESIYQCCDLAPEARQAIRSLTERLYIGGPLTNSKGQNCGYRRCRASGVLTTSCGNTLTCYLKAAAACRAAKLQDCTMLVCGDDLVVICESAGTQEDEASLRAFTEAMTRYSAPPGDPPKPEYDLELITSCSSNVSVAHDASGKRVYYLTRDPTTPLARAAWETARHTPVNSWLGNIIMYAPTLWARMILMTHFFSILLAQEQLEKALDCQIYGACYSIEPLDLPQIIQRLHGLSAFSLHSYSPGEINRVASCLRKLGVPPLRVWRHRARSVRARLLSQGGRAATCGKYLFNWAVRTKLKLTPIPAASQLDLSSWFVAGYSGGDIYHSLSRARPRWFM
Method: The cDNA encoding the NS5B protein of HCV, genotype 1b, was cloned into the pET21a expression vector. The protein was expressed with an 18 amino acid C-terminal truncation to enhance the solubility. The E. coli competent cell line BL21(DE3) was used for expression of the protein. Cultures were grown at 37° C. for ˜4 hours until the cultures reached an optical density of 2.0 at 600 nm. The cultures were cooled to 20° C. and induced with 1 mM IPTG. Fresh ampicillin was added to a final concentration of 50 μg/ml and the cells were grown overnight at 20° C.
Cell pellets (3 L) were lysed for purification to yield 15-24 mgs of purified NS5B. The lysis buffer consisted of 20 mM Tris-HCl, pH 7.4, 500 mM NaCl, 0.5% triton X-100, 1 mM DTT, 1 mM EDTA, 20% glycerol, 0.5 mg/ml lysozyme, 10 mM MgCl2, 15 ug/ml deoxyribonuclease I, and Complete TM protease inhibitor tablets (Roche). After addition of the lysis buffer, frozen cell pellets were resuspended using a tissue homogenizer. To reduce the viscosity of the sample, aliquots of the lysate were sonicated on ice using a microtip attached to a Branson sonicator. The sonicated lysate was centrifuged at 100,000×g for 1 hr at 4° C. and filtered through a 0.2 μm filter unit (Corning).
The protein was purified using three sequential chromatography steps: Heparin sepharose CL-6B, polyU sepharose 4B, and […] SP sepharose (Pharmacia). The chromatography buffers were identical to the lysis buffer but contained no lysozyme, deoxyribonuclease I, MgCl2 or protease inhibitor and the NaCl concentration of the buffer was adjusted according to the requirements for charging the protein onto the column. Each column was eluted with a NaCl gradient which varied in length from 5-50 column volumes depending on the column type. After the final chromatography step, the resulting purity of the enzyme is >90% based on SDS-PAGE analysis. The enzyme was aliquoted and stored at −80° C.
HCV RdRp genotype 1b assays were run in a final volume of 60 μl in 96 well plates (Costar 3912). The assay buffer is composed of 20 mM Hepes, pH 7.5, 2.5 mM KCl, 2.5 mM MgCl2, 1 mM DTT, 1.6 U RNAse inhibitor (Promega N2515), 0.1 mg/ml BSA (Promega R3961), and 2% glycerol. All compounds were serially diluted (3-fold) in DMSO and diluted further in water such that the final concentration of DMSO in the assay was 2%. HCV RdRp genotype 1b enzyme was used at a final concentration of 28 nM. A polyA template was used at 6 nM, and a biotinylated oligo-dT12 primer was used at 180 nM final concentration. Template was obtained commercially (Amersham 27-4110). Biotinylated primer was prepared by Sigma Genosys. 3H-UTP was used at 0.6 μCi (0.29 μM total UTP). Reactions were initiated by the addition of enzyme, incubated at 30° C. for 60 min, and stopped by adding 25 μl of 50 mM EDTA containing SPA beads (4 μg/μl, Amersham RPNQ 0007). Plates were read on a Packard TOPCOUNT® NXT after >1 hr incubation at room temperature.
A modified enzyme assay was performed essentially as described for the standard enzyme assay except for the following: The biotinylated oligo dT12 primer was precaptured on streptavidin-coated SPA beads by mixing primer and beads in assay buffer and incubating at room temperature for one hour. Unbound primer was removed after centrifugation. The primer-bound beads were resuspended in 20 mM Hepes buffer, pH 7.5 and used in the assay at final concentrations of 20 nM primer and 0.67 μg/μl beads. Order of addition in the assay: enzyme (14 nM) was added to diluted compound followed by the addition of a mixture of template (0.2 nM), 3H-UTP (0.6 μCi, 0.29 μM), and primer-bound beads, to initiate the reaction; concentrations given are final. Reactions were allowed to proceed for 4 hours at 30° C.
IC50 values for compounds were determined using seven different [I]. IC50 values were calculated from the inhibition using the formula y=A+((B−A)/(1+((C/x)^D))).

## COc1ccc2c(c1)C=C(c1c(C(=O)N3C[C@@H]4C[C@H]3CN4CC3CC3)cnn1C1CCC1)Cn1c-2c(C2CCCCC2)c2ccc(C(=O)NS(=O)(=O)C(C)C)cc21
[1]; class symbol
  EC50: 1.7 to 500 nM
[2]; class symbol
  IC50: 1.7 to 500 nM

## COc1ccc2c(c1)C=C(c1c(C(=O)N3C4CCC3CC(C)(O)C4)cnn1C1CCC1)Cn1c-2c(C2CCCCC2)c2ccc(C(=O)NS(=O)(=O)C(C)C)cc21 (centres unmarked)
[1]; class symbol
  EC50: 1.7 to 500 nM
[2]; class symbol
  IC50: 1.7 to 500 nM

## COc1ccc2c(c1)C=C(c1c(C(=O)N3C[C@@H](C)O[C@@H](C)C3)cnn1C1CCC1)Cn1c-2c(C2CCCCC2)c2ccc(C(=O)NS(=O)(=O)CC(C)C)cc21
[1]; class symbol
  EC50: 1.7 to 500 nM
[2]; class symbol
  IC50: 1.7 to 500 nM

## CCN1C[C@@H]2C[C@H]1CN2C(=O)c1c(C)nn(C2CCC2)c1C1=Cc2cc(OC)ccc2-c2c(C3CCCCC3)c3ccc(C(=O)NS(=O)(=O)N(C)C)cc3n2C1
[1]; class symbol
  EC50: 1.7 to 500 nM
[1]; exact value
  EC50: 10 nM
[2]; class symbol
  IC50: 1.7 to 500 nM
[2]; exact value
  IC50: 3.4 nM

## CCOC(=O)c1cnn(C2CCN(C)CC2)c1C1=Cc2cc(OC)ccc2-c2c(C3CCCCC3)c3ccc(C(=O)NS(=O)(=O)C(C)C)cc3n2C1
[1]; class symbol
  EC50: 1.7 to 500 nM
[2]; class symbol
  IC50: 1.7 to 500 nM

## COc1ccc2c(c1)C=C(c1c(C(=O)N3C[C@@H]4C[C@H]3CN4C)cnn1C1CCC1)Cn1c-2c(C2CCCCC2)c2ccc(C(=O)NS(=O)(=O)C(C)C)cc21
[1]; class symbol
  EC50: 1.7 to 500 nM
[2]; class symbol
  IC50: 1.7 to 500 nM

## COc1ccc2c(c1)C=C(c1c(C(=O)N3C4CCC3CN(C)C4)cnn1C1CCOCC1)Cn1c-2c(C2CCCCC2)c2ccc(C(=O)NS(=O)(=O)C(C)C)cc21
[1]; class symbol
  EC50: 1.7 to 500 nM
[2]; class symbol
  IC50: 1.7 to 500 nM

## COCCN(C(=O)c1cnn(C2CCC2)c1C1=Cc2cc(OC)ccc2-c2c(C3CCCCC3)c3ccc(C(=O)NS(=O)(=O)C(C)C)cc3n2C1)C(C)C
[1]; class symbol
  EC50: 1.7 to 500 nM
[2]; class symbol
  IC50: 1.7 to 500 nM

## COc1ccc2c(c1)C=C(c1c(C(=O)N3C4CCCCC3CCC4)cnn1C1CCC1)Cn1c-2c(C2CCCCC2)c2ccc(C(=O)NS(=O)(=O)C(C)C)cc21
[1]; class symbol
  EC50: 1.7 to 500 nM
[1]; exact value
  EC50: 400 nM
[2]; class symbol
  IC50: 1.7 to 500 nM
[2]; exact value
  IC50: 7 nM

## COc1ccc2c(c1)C=C(c1c(C(=O)N3C[C@@H]4C[C@H]3CO4)c(C)nn1C1CCC1)Cn1c-2c(C2CCCCC2)c2ccc(C(=O)NS(=O)(=O)C(C)C)cc21
[1]; class symbol
  EC50: 1.7 to 500 nM
[2]; class symbol
  IC50: 1.7 to 500 nM

## COc1ccc2c(c1)C=C(c1c(C(=O)N3C[C@@H](C)N(C)[C@@H](C)C3)cnn1C1CCN(C)CC1)Cn1c-2c(C2CCCCC2)c2ccc(C(=O)NS(=O)(=O)C(C)C)cc21
[1]; class symbol
  EC50: 1.7 to 500 nM
[2]; class symbol
  IC50: 1.7 to 500 nM
